Data reported in patent US20230121313A1 (priority 2019, published 2023).

Tests used:
[1] = test system: subjects with MDD at imminent risk for suicide; experiment: Beck Scale for Suicidal Ideation (BSS), Study […]2001; assay type: in vivo, human; conditions: 84 mg; for BSS total score change, Diff. of LS Means (minus Placebo): ANCOVA LOCF; for BSS total score, change from baseline, mean / BSS total score, change from baseline, median / BSS total score, mean / BSS total score, median: LOCF, N 34
Text: • a. Changes from baseline to Day 2 and Day 25 for the MADRS total score • b. Changes from baseline to Day 1 4-hours postdose, Day 2 and Day 25 for the MADRS Suicide Item • c. Changes from baseline to Day 1 4-hours postdose, Day 2, and Day 25 for the clinical global judgment of suicide risk from the Suicide Ideation and Behavior Assessment Tool (SIBAT) • d. Sustained response (Onset of Clinical Response) defined as at least 50% reduction from baseline in MADRS total score with onset on Day 1 that is maintained through the end of the double-blind phase (Day 25) • e. Changes from baseline to Day 1 4-hours postdose, Day 2, and Day 25 for the Beck Scale for Suicidal Ideation (BSS) • f. Changes from baseline to Day 1 4-hours postdose and Day 25 for the Beck Hopelessness Scale
The BSS is a 21-item self-reported instrument to detect and measure the severity of suicidal ideation in adults and adolescents aged 17 years and older. The BSS total score represents the severity of suicide ideation, and it is calculated by summing the ratings of the first 19 items; the total score ranges from 0 to 38, with a higher score representing greater suicide ideation. Increasing scores reflect increases in suicidal risk.

glutamate NMDA receptor = conditions: cited from earlier work
[2] = test system: elderly subjects with TRD; conditions: human, in vivo, other: intranasal
Procedure: The Clinician Administered Dissociative States Scale (CADSS) was measured prior to the start of each dose, at 40 minutes, and 1.5 hours postdose.

With `CN[C@]1(c2ccccc2Cl)CCCCC1=O` [esketamine, (S)-2-(2-chlorophenyl)-2-(methylamino)cyclohexanone] the “BSS total score change, Diff. of LS Means (minus Placebo)” value ([1]; Day 1 (DB): 4 H) was −2.3, the “BSS total score, change from baseline, mean” value (“BSS total score, change … mean” below) ([1]; Day 1 (DB): 4 H) was −10.2 and the “BSS total score, change from baseline, median” value ([1]; Day 1 (DB): 4 H) was −8.0. For the same compound, the “BSS total score, mean” value ([1]; Day 1 (DB): 4 H) was 13.8, the “BSS total score, median” value ([1]; Day 1 (DB): 4 H) was 16.5 and the “BSS total score change, Diff. of LS Means (minus Placebo)” value ([1]; Day 2 (DB)) was −1.9. The “BSS total score, change … mean” value ([1]; Day 2 (DB)) was −12.9, the “BSS total score, change from baseline, median” value ([1]; Day 2 (DB)) was −11.5 and the “BSS total score, mean” value ([1]; Day 2 (DB)) was 11.1. For the same compound, the “BSS total score, median” value ([1]; Day 2 (DB)) was 13.0, the “BSS total score change, Diff. of LS Means (minus Placebo)” value ([1]; End Point (DB)) was −1.7 and the “BSS total score, change … mean” value ([1]; End Point (DB)) was −19.3. The “BSS total score, change from baseline, median” value ([1]; End Point (DB)) was −21.0, the “BSS total score, mean” value ([1]; End Point (DB)) was 4.7 and the “BSS total score, median” value ([1]; End Point (DB)) was 0.0. The “BSS total score change vs placebo” value ([1]; […]2001, Day 1: 4 hours postdose, Day 2 (DB), End Point (DB)) was “no statistically significant differences”, the “Affinity for the glutamate NMDA receptor in vitro relative to R-ketamine” value (glutamate NMDA receptor) was 3 to 4 fold and the “CADSS dissociative and perceptual change symptoms resolved by (postdose)” value [2] was ≤ 1.5 h.
